Measured values from patent publication US10695446B2, “Composition and method for detecting hypoxia” (Vanderbilt University, priority 2015, dated 2020).
Counter-ions that a name gives are not always drawn.

Experiments:
[1] = tested on: retinal hypoxia, laser-induced retinal vein occlusion (RVO) mice; test: Imaging of retinal hypoxia in the mouse RVO model; type: in vivo; details: for pattern of retinal hypoxia image in RVO retina: HYPDX-4-dependent imaging versus pimonidazole-adduct immunostaining, 60 mg/kg i.p.
Procedure: Laser-induced retinal vein occlusion was performed as previously described.^31 Briefly, C57BL/6 female mice were anesthetized by intraperitoneal injection of ketamine/xylazine and the eyes were dilated using 1% tropicamide. A phosphate buffered solution of 39.31 mM rose bengal (4,5,6,7-tetrachloro-2′,4′,5′,7′-tetraiodo-fluorescein disodium salt, certified purity, 95%; Sigma, St. Louis, Mo.) was sterilized by passage through a 0.22-μm filter, and tail vein injected at a dose of 40 mg/kg. An argon laser photocoagulator (green light) mounted on a slit-lamp (Space Coast Laser Inc. Palm Bay, Fla.) was used to create retinal vein-occlusion (50-μm spot size, 1-second duration, 50 mW). Three laser applications were required to completely stop the blood flow as determined by observing the fundus image with a slit-lamp microscope. In each fundus, only one or two veins was/were photocoagulated to create retinal ischemia. Two hours post-RVO, mice were divided into two groups and received intraperitoneal injection of the HYPDX-4 (60 mg/kg body weight) or pimonidazole hydrochloride (60 mg/kg body weight). Twenty-two hours post-injection of HYPDX-4, in vivo HYPDX-4 dependent fluorescence imaging was performed. The mice were anesthetized with ketamine/xylazine, dilated with 1% tropicamide, and placed on a warm platform; TRITC-Dextran 500 (Sigma, St. Louis, Mo.) was injected systemically at a dose of 20 mg/kg; and fluorescent and bright field fundus images were acquired using the Micron IV retinal-imaging system. Mice were sacrificed, enucleated and the globes were fixed in 10% NBF. HYPDX-4-dependent fluorescence was imaged ex vivo as previously described in the OIR section. For the pimonidazole hydrochloride-injected group, the animals were sacrificed one hour after injection, enucleated and the globes were fixed in 10% NBF. The retinas were processes and ex vivo images were captured as described above for mouse OIR.

MIO-M1 cells [2] = test: In vitro hypoxia-induced HYPDX-4-dependent fluorescence assay, MIO-M1 cells; type: cell-based, human; details: MIO-M1, 0.1% oxygen, 10 μM to 100 μM
Procedure: (§1) ARPE-19 cells were cultured in DMEM/F12 supplemented with 10% Fetal Bovine Serum, 1× GlutaMAX, and 1× Gentamicin/Amphotericin B. MIO-M1 and R28 cells were cultured in low glucose DMEM supplemented with 10% Fetal Bovine Serum, 1× GlutaMAX, and 1× Penicillin-Streptomycin. Cells were maintained in a humidified environment with 5% CO2 at 37° C. unless otherwise noted. The cells were cultured in 96 microwell plates, with HYPDX-4 concentrations ranging from 10 to 100 μM in complete medium, or 100 μM pimonidazole hydrochloride in complete medium. To establish a hypoxic environment, the cells were placed into a humidified hypoxic chamber and flushed with a mixture of 95% N2 and 5% CO2, at a flow rate of 20 L/min for 5 min according to manufacturer instructions. The chamber was clamped and placed at 37° C. for the duration of the treatment. The oxygen level was monitored using the Traceable™ Dissolved Oxygen Meter Pen (Fisher Scientific; Pittsburg, Pa.). […]
(§2) ARPE-19, MIO-M1 were seeded at 20,000 and R28 at 15,000 cells per well, respectively, in a 96-well black plate with a clear bottom. […] Fluorescence intensity was measured ([…]: 490 nm, Emission: 520 nm) using a microplate reader (Biotek; Winooski, Vt.).

retina of RA mice = test: Electroretinography (ERG) measurements; type: in vivo, mouse; details: 100 mg/kg systemic, dark-adapted mice, 7 days post administration, various flash intensities
Procedure: ERG measurements were performed according to previously published methods.^32,33 Briefly, ERG analysis was performed on mice injected with HYPDX-4 (100 mg/kg) at one week post-injection. Animals were dark adapted overnight, anesthetized with ketamine/xylazine, dilated with 1% tropicamide, and placed on a warm platform within the Ganzfeld dome of a Diagnosys LLC Espion Electrophysiology system (Lowell, Mass., USA). Mice were exposed to flashes of light ranging from −4 to 2 log cd·s/m^2 and the amplitudes of a-wave and b-wave were measured from baseline to peak. The amplitude of the a-wave and b-wave were plotted as a function of luminance.

ARPE-19 cells = test: In vitro hypoxia-induced HYPDX-4-dependent fluorescence assay, ARPE-19 cells; type: cell-based, human; details: ARPE-19, 0.1% oxygen, 10 μM to 100 μM
Procedure: as §1, §2

R28 cells [3] = test: In vitro imaging of R28 cells using HYPDX-4; type: cell-based, rat
Procedure: R28 cells were seeded at a density of 45,000 cells per well in 3 wells of 4-well chamber slides. When cells were 90% confluent, 2 wells were treated with HYPDX-4 in complete medium, and one well was treated with pimonidazole hydrochloride diluted in complete medium. The cells were cultured in hypoxia or normoxia for 4 hours. Cells were washed 3 times with HBSS, fixed with 10% neutral buffered formalin (NBF) for 10 minutes at room temperature, washed 3 times with TBS and mounted with Prolong Gold with DAPI mounting media. Pimonidazole-adducts were immunostained according to manufacturer's protocol. HYPDX-4 dependent fluorescence images were taken using an epifluorescence microscope.

[4] = tested on: retinal hypoxia, oxygen-induced retinopathy (OIR) mice; test: Imaging of retinal hypoxia in the mouse OIR model; type: in vivo
Procedure: Mouse pups and their dams were placed in 75% oxygen from P7 to P12 according to the OIR oxygen treatment protocol.^27 On P12, litters were removed to room air and after 2 hours, HYPDX-4 (60 mg/kg in PBS) was administered by intraperitoneal injection. Twenty-four hours post-injection, in vivo HYPDX-4-dependent fluorescence imaging was performed. Briefly, mice were anesthetized with ketamine/xylazine, eyes were dilated with 1% tropicamide and placed on a warm platform, and fluorescent and bright field fundus images were acquired using the Micron IV retinal-imaging system (Phoenix Research Laboratories; Pleasanton, Calif.). Then, ex vivo imaging of HYPDX-4 dependent fluorescence was performed. The mice were sacrificed, enucleated, and the globes were fixed in 10% neutral buffered formalin (NBF). Retinas were dissected and stained directly with Alexa Fluor 647-conjugated isolectin B4 then flat-mounted on a microscope slide with Prolong Gold mounting medium (Life Technologies, Grand Island, N.Y.). Images were captured using an epifluorescence ‘Nikon Eclipse Ti-E’ inverted microscope (Melville, N.Y.).
Some mice received intraperitoneal injections of pimonidazole hydrochloride at a concentration of 60 mg/kg body weight two hours after removal to the room air; they were sacrificed and enucleated one hour later. The globes were fixed in 10% NBF for 2 hours; retinas were dissected and washed with tris-buffered saline (TBS), then they were blocked/permeabilized in 10% donkey serum with 1% Triton X-100/0.05% Tween 20 in TBS for 6 hours, and stained with an antibody against pimonidazole-adducts followed by the secondary anti-rabbit IgG conjugated to Alexa Fluor 647- and Alexa Fluor 488-conjugated isolectin B4. The retinas were mounted on microscope slides with Prolong Gold mounting medium. Ex vivo images were captured using an epifluorescence ‘Nikon Eclipse Ti-E’ inverted microscope.

[5] = In vitro stability (photostability) in solution, kinetic fluorescence; type: physicochemical; details: phosphate buffer, 100 nM, 37° C., ex 490 nm / em 520 nm
Procedure: HYPDX-4 was dissolved in phosphate buffer at a concentration of 100 nM and fluorescence was monitored at excitation maximum 490 nm and emission at 520 nm.

R28 cells [6] = test: Cell viability assay (BrdU incorporation), R28 cells; type: cell-based, rat; details: R28, 0-100 μM, 24 h
Procedure: (§3) Retinal cell-lines were treated with HYPDX-4 (100 μM) and the viability was measured using the bromodeoxyUridine (BrdU) incorporation assay according to the manufacturers protocol. Briefly, retinal cells were seeded in a 96-well plate for twenty four hours and serum starved for 6 hours. Then, cells were treated with HYPDX-4 and vehicle controls diluted in complete media and allowed to incubate for 24 h. Four hours prior to the end of the incubation, BrdU was added at a concentration of 10 μM and incorporation of BrdU was quantified by ELISA with the BrdU cell viability ELISA kit (Exalpha Biologicals; Shirley, Mass.).

[7] = tested on: retinal cross sections from RA mice; test: TUNEL assay in retinal cross sections; type: in vivo, mouse; details: retinal cross sections from treated mice, DNase I positive control
Procedure: TUNEL assays were performed using Click-iT in situ apoptosis detection kit (Life Technology, USA). The mouse eyes were enucleated and fixed by immersing in 10% NBF for 25 minutes at 4° C. Then, they were fresh frozen in 30% sucrose and embedded in TissueTec OCT for cryosectioning (7 μm sections). The retinal cross-sections were then stained for fragmented DNA by incorporating alkyne-modified EdUTP nucleotide followed by detection with Alexafluor 647 azide in apoptotic cells. Retinal cross-sections were treated with DNase I as the positive control.

R28 cells [8] = test: In vitro hypoxia-induced HYPDX-4-dependent fluorescence assay, R28 cells; type: cell-based, rat
Procedure: as §1, §2

MIO-M1 cells [9] = test: Cell viability assay (BrdU incorporation), MIO-M1 cells; type: cell-based, human; details: MIO-M1, 0-100 μM, 24 h
Procedure: as §3

[10] = Solubility in aqueous solvents, buffers and cell-culture medium; type: physicochemical; details: neat water or saline, PBS, DMEM with 10% FBS; read-out: soluble at a concentration
[11] = tested on: human Müller cells (MIO-M1); test: Pimonidazole-adduct immunodetection of hypoxia in MIO-M1 cells; type: cell-based; details: MIO-M1, 100 μM, 4 hours
Procedure: ARPE-19 cells were cultured in DMEM/F12 supplemented with 10% Fetal Bovine Serum, 1× GlutaMAX, and 1× Gentamicin/Amphotericin B. MIO-M1 and R28 cells were cultured in low glucose DMEM supplemented with 10% Fetal Bovine Serum, 1× GlutaMAX, and 1× Penicillin-Streptomycin. Cells were maintained in a humidified environment with 5% CO2 at 37° C. unless otherwise noted. The cells were cultured in 96 microwell plates, with HYPDX-4 concentrations ranging from 10 to 100 μM in complete medium, or 100 μM pimonidazole hydrochloride in complete medium. To establish a hypoxic environment, the cells were placed into a humidified hypoxic chamber and flushed with a mixture of 95% N2 and 5% CO2, at a flow rate of 20 L/min for 5 min according to manufacturer instructions. The chamber was clamped and placed at 37° C. for the duration of the treatment. The oxygen level was monitored using the Traceable™ Dissolved Oxygen Meter Pen (Fisher Scientific; Pittsburg, Pa.). To confirm induction of hypoxia, cells were treated with 100 μM pimonidazole hydrochloride diluted in complete medium, subjected to hypoxia or normoxia for 4 hours and immunostained for pimonidazole-adducts according to manufacturer's protocol.

Procedure for physchem: A mixture of Octanol (500 uL) and water (500 uL) was added to HYPDX-4 (173 μg), or Pimonidazole Free base (742 μg) or Pimonidazole HCl (1 mL, 50 mg/mL) in an eppendorf tube and gently mixed in a rotator for 2 days. The aqueous and octanol layers were separated and the Optical Density (OD) was measured in microplate spectrophotometer instrument. The amount of HYPDX-4, Pimonidazole Free base and Pimonidazole HCl was calculated from the standard curve.

## CCN1/C(=C/C=C/C=C/C2=[N+](CCCCS(=O)(=O)[O-])c3ccc4ccccc4c3C2(C)C)C(C)(C)c2cc(CC(=O)NCC3CCN(CC(O)Cn4ccnc4[N+](=O)[O-])CC3)ccc21 (stereo not drawn) [HYPDX-4]
[1]; 60 mg/kg i.p. two hours after occlusion, imaging 22 hours post-injection
  HYPDX-4-dependent fluorescence in RVO retina: detected downstream and laterally from the occlusion
[1]
  pattern of retinal hypoxia image in RVO retina: more confluent image of retinal hypoxia
physchem
  logP at 2 days: -2.58
MIO-M1 cells [2]
  HYPDX-4 dependent fluorescence, dose dependence: optimal signal to noise ratios at the 100 μM dose
Retina of RA mice
  ERG mean a-wave amplitudes versus vehicle (PBS) and sodium fluorescein: no significant changes in mean a-wave amplitudes
  ERG mean b-wave amplitudes versus vehicle (PBS) and sodium fluorescein: no significant changes in mean b-wave amplitudes
ARPE-19 cells
  HYPDX-4 dependent fluorescence, dose dependence: optimal signal to noise ratios at the 100 μM dose
R28 cells [3]; R28, 100 μM, 0.1% oxygen, 4 hours
  cellular fluorescence imaging, hypoxic cells: Hypoxia-specific, HYPDX-4-dependent fluorescence activity
R28 cells [3]; R28, normoxia
  cellular fluorescence imaging, normoxic cells: Minimal
[4]; OIR pups, 60 mg/kg i.p. on P12, imaging 24 hours post-injection, central avascular retina
  HYPDX-4-dependent fluorescence in OIR retina: detected in vivo as well as ex vivo
[4]; age matched RA (P13) control pups, same treatment
  HYPDX-4 dependent fluorescence in room air control retina: undetectable
[4]; ex vivo retinal transverse sections from OIR pups
  retinal layers showing HYPDX-4-dependent fluorescence (hypoxia), cross sections: inner plexiform and inner nuclear layers
[5]
  photostability in solution, duration: at least 24 hours
R28 cells [6]
  cell viability (BrdU incorporation): did not affect cell viability
[7]
  retinal cell apoptosis (TUNEL): No apoptosis was observed
R28 cells [8]; 100 μM, oxygen 0.1% to 20.9%, 4 hours
  HYPDX-4-dependent fluorescence versus oxygen concentration: maximal at 0.1% oxygen
R28 cells [8]; R28, 0.1% oxygen, 10 μM to 100 μM
  HYPDX-4 dependent fluorescence, dose dependence: optimal signal to noise ratios at the 100 μM dose
MIO-M1 cells [9]
  cell viability (BrdU incorporation): did not affect cell viability
[10]
  solubility: ≥ 100 µM

## O=[N+]([O-])c1nccn1CC(O)CN1CCCCC1 (stereo not drawn) [Pimonidazole HCl, reference compound]
[11]; hypoxia
  pimonidazole-adduct fluorescence, hypoxic cells: Significant fluorescence enhancement
[11]; normoxia
  pimonidazole-adduct fluorescence, normoxic cells: minimal fluorescence signal
[1]
  pattern of retinal hypoxia image in RVO retina: patchy
physchem
  logP at 2 days: -2.06
[4]; 60 mg/kg i.p., ex vivo, sacrificed one hour later
  pimonidazole immunostaining of retinal hypoxia in OIR pups: confirmed
